“And” between values parts separate entries of the source, which are not always exact repeats. Equal entries are not always repeated.

The text below walks through data of PubChem BioAssay AID1963424 (Molecular Pharmacology Branch, DTP, NCI, 2024).

The experiment relates to 327498-153-R-J2-PDC complex spheroid growth, % test/control. The experiment in a line: Anticancer human tumor 327498-153-R-J2-PDC patient-derived uterine carcinosarcoma cell line growth inhibition [Asc]. The following applies: for viability, T/C: stronger effect = lower value. The procedure, abridged:
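Complex spheroids combining tumor cells with HUVEC endothelial cells and human MSCs, at 37 degrees C, 5% CO2; agents tested alone or combined, half-log dilutions from at or near clinical Cmax, or 10 microM if Cmax unknown.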
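Note: spheroids exposed to compound for 7 days after 3 days of growth.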
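Throughout, for viability, T/C: 100% = DMSO vehicle control wells.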

As for `C#Cc1c(F)ccc2cc(O)cc(-c3ncc4c(N5CC6CCC(C5)N6)nc(OCC56CCCN5CC(F)C6)nc4c3F)c12` (stereo not given) + CNC(C)C(=O)NC1CN(S(=O)(=O)c2cccc(S(=O)(=O)N3CCC4CCC(C(=O)NC(c5ccccc5)c5ccccc5)N4C(=O)C(NC(=O)C(C)NC)C3)c2)CCC2CCC(C(=O)NC(c3ccccc3)c3ccccc3)N2C1=O, the IC50 – broadly, the point on the concentration scale where inhibition reaches its midpoint – is over 10000 nM (curve of first compound, second compound 0.01 µM); over 10000 nM (curve of first compound, second compound 0.0316 µM); over 10000 nM (curve of first compound, second compound 0.1 µM); over 10000 nM (curve of first compound, second compound 0.316 µM); over 10000 nM (curve of first compound, second compound 1 µM). Also, the viability, T/C (commonly the ratio of treated to control) (second compound 0.01 µM, first compound 0.0316 µM) is 102%; the viability, T/C (second compound 0.01 µM, first compound 0.1 µM) is 97.8%; the viability, T/C (second compound 0.01 µM, first compound 0.316 µM) was 95.8%; the viability, T/C (second compound 0.01 µM, first compound 1 µM) was 88.6%; the viability, T/C (second compound 0.01 µM, first compound 3.16 µM) is 68.8%; the viability, T/C (second compound 0.01 µM, first compound 10 µM) is 53%. Besides, the viability, T/C was 103% (second compound 0.0316 µM, first compound 0.0316 µM); 97.3% (second compound 0.0316 µM, first compound 0.1 µM); 102% (second compound 0.0316 µM, first compound 0.316 µM); 77% (second compound 0.0316 µM, first compound 1 µM); 61.9% (second compound 0.0316 µM, first compound 3.16 µM); 55.1% (second compound 0.0316 µM, first compound 10 µM). The viability, T/C was 103% (second compound 0.1 µM, first compound 0.0316 µM); 95.4% (second compound 0.1 µM, first compound 0.1 µM); 97.5% (second compound 0.1 µM, first compound 0.316 µM); 82.8% (second compound 0.1 µM, first compound 1 µM); 69.4% (second compound 0.1 µM, first compound 3.16 µM); 61.9% (second compound 0.1 µM, first compound 10 µM). The viability, T/C is 106% (second compound 0.316 µM, first compound 0.0316 µM); 104% (second compound 0.316 µM, first compound 0.1 µM); 92.4% (second compound 0.316 µM, first compound 0.316 µM); 82.3% (second compound 0.316 µM, first compound 1 µM); 74.5% (second compound 0.316 µM, first compound 3.16 µM); 55.6% (second compound 0.316 µM, first compound 10 µM). The viability, T/C was 96.3% (second compound 1 µM, first compound 0.0316 µM); 96.1% (second compound 1 µM, first compound 0.1 µM); 97% (second compound 1 µM, first compound 0.316 µM); 84.9% (second compound 1 µM, first compound 1 µM); 74% (second compound 1 µM, first compound 3.16 µM); 67% (second compound 1 µM, first compound 10 µM).
Consider `CNC(C)C(=O)NC1CN(S(=O)(=O)c2cccc(S(=O)(=O)N3CCC4CCC(C(=O)NC(c5ccccc5)c5ccccc5)N4C(=O)C(NC(=O)C(C)NC)C3)c2)CCC2CCC(C(=O)NC(c3ccccc3)c3ccccc3)N2C1=O` (stereo not given), for which the viability, T/C was 95.8% and 104% (compound 0.00316 µM); 96.8% [middle of 15 runs] (compound 0.01 µM); 98.1% [middle of 15 runs] (compound 0.0316 µM); 99.2% [middle of 15 runs] (compound 0.1 µM); 99.9% [middle of 15 runs] (compound 0.316 µM); 96.2% [middle of 15 runs] (compound 1 µM). Further, the IC50 (compound alone, run of 10/03/2022) is over 1000 nM and the IC50 (curve of compound) was over 1000 nM.
On to `NC(=O)C(=Cn1cnc(-c2cc(C(F)(F)F)cc(C(F)(F)F)c2)n1)c1cncnc1` + CCN1C(C(=O)NC23CCC(C(=O)O)(CC2)CC3)C(c2cccc(Cl)c2F)C2(C(=O)Nc3cc(Cl)ccc32)C12CCCCC2, for which the concentration for half-maximal inhibition (IC50) is 24.8 nM (curve of first compound, second compound 0.03 µM); 8.01 nM (curve of first compound, second compound 0.0949 µM); under 0.949 nM (curve of first compound, second compound 0.3 µM); under 0.949 nM (curve of first compound, second compound 0.949 µM); under 0.949 nM (curve of first compound, second compound 3 µM). Further, the viability, T/C (second compound 0.03 µM, first compound 0.000949 µM) is 102%; the viability, T/C (second compound 0.03 µM, first compound 0.003 µM) is 83.2%; the viability, T/C (second compound 0.03 µM, first compound 0.00949 µM) was 75.5%; the viability, T/C (second compound 0.03 µM, first compound 0.03 µM) was 49.4%; the viability, T/C (second compound 0.03 µM, first compound 0.0949 µM) was 8.49%; the viability, T/C (second compound 0.03 µM, first compound 0.3 µM) was 1.47%. Also, the viability, T/C was 73.5% (second compound 0.0949 µM, first compound 0.000949 µM); 70.8% (second compound 0.0949 µM, first compound 0.003 µM); 45.9% (second compound 0.0949 µM, first compound 0.00949 µM); 16.1% (second compound 0.0949 µM, first compound 0.03 µM); 5.19% (second compound 0.0949 µM, first compound 0.0949 µM); 0.5% (second compound 0.0949 µM, first compound 0.3 µM). Also, the viability, T/C runs as follows: (second compound 0.3 µM, first compound 0.000949 µM) 40.5%; (second compound 0.3 µM, first compound 0.003 µM) 33.2%; (second compound 0.3 µM, first compound 0.00949 µM) 22.8%; (second compound 0.3 µM, first compound 0.03 µM) 5.64%; (second compound 0.3 µM, first compound 0.0949 µM) 1.54%; (second compound 0.3 µM, first compound 0.3 µM) 0.36%. The viability, T/C was 9.07% (second compound 0.949 µM, first compound 0.000949 µM); 5.81% (second compound 0.949 µM, first compound 0.003 µM); 5.57% (second compound 0.949 µM, first compound 0.00949 µM); 1.96% (second compound 0.949 µM, first compound 0.03 µM); 0.72% (second compound 0.949 µM, first compound 0.0949 µM); 0.32% (second compound 0.949 µM, first compound 0.3 µM). Also, the viability, T/C is 4.84% (second compound 3 µM, first compound 0.000949 µM); 2.37% (second compound 3 µM, first compound 0.003 µM); 1.32% (second compound 3 µM, first compound 0.00949 µM); 1% (second compound 3 µM, first compound 0.03 µM); 0.92% (second compound 3 µM, first compound 0.0949 µM); 0.41% (second compound 3 µM, first compound 0.3 µM).
With `CCN1CCN(Cc2ccc(Nc3ncc(F)c(-c4cc(F)c5nc(C)n(C(C)C)c5c4)n3)nc2)CC1`, the viability, T/C runs as follows: (compound 0.00316 µM) 95% and 98.3% and 99.9%; (compound 0.01 µM) 82.9% and 85.2% and 108%; (compound 0.0316 µM) 78% and 88.9% and 94.2%; (compound 0.1 µM) 73.7% and 77.4% and 81.4%; (compound 0.316 µM) 70.5% and 69.2% and 73.2%; (compound 1 µM) 63.1% and 63.3% and 75.3%. The IC50 (curve of compound) was over 1000 nM.
